According to patent US20260191835A1, “COMBINATIONS COMPRISING A MENIN-MLL INHIBITOR AND AT LEAST ONE OTHER THERAPEUTIC AGENT” (JANSSEN PHARMACEUTICA NV, priority 2022, published 2026):

Legend:
MOLM14 cells = assay: Proliferation assay (spheroid assay), MOLM14; assay type: cell-based; settings: Homo sapiens, MOLM-14, 192 h, 8 days; read-out: spheroid assay_MOLM14 IC50
Experimental: The anti-proliferative effect of menin/MLL protein/protein interaction inhibitor test compounds was assessed in human leukemia cell lines. The cell line MOLM14 harbors a MLL translocation and expresses the MLL fusion protein MLL-AF9, respectively, as well as the wildtype protein from the second allele. OCI-AML3 cells that carry the NPM1c gene mutation were also tested. […] KO-52 was used as a control cell line containing two MLL (KMT2A) wildtype alleles in order to exclude compounds that display general cytotoxic effects.
MOLM14 cells were cultured in RPMI-1640 (Sigma Aldrich) supplemented with 10% heat-inactivated fetal bovine serum (HyClone), 2 mM L-glutamine (Sigma Aldrich) and 50 μg/ml gentamycin (Gibco). KO-52 and OCI-AML3 cell lines were propagated in alpha-MEM (Sigma Aldrich) supplemented with 20% heat-inactivated fetal bovine serum (HyClone), 2 mM L-glutamine (Sigma Aldrich) and 50 µg/ml gentamycin (Gibco).
In order to assess the anti-proliferative effects, 200 MOLM14 cells, […] or 300 KO-52 cells were seeded in 200 μl media per well in 96-well round bottom, ultra-low attachment plates (Costar, catalogue number 7007). Cell seeding numbers were chosen based on growth curves to ensure linear growth throughout the experiment. Test compounds were added at different concentrations and the DMSO content was normalized to 0.3%. Cells were incubated for 8 days at 37° C. and 5% CO2. Spheroid like growth was measured in real-time by live-cell imaging (IncuCyteZOOM, Essenbio, 4× objective) acquiring images at day 8. Confluence (%) as a measure of spheroid size was determined using an integrated analysis tool.
In order to determine the effect of the test compounds over time, the confluence in each well as a measure of spheroid size, was calculated. Confluence of the highest dose of a reference compound was used as baseline for the LC (Low control) and the confluence of DMSO treated cells was used as 0% cytotoxicity (High Control, HC).
Absolute IC50 values were calculated as percent change in confluence as follows: • LC=Low Control: cells treated with e.g. […] of the cytotoxic agent staurosporin, or e.g. cells treated with a high concentration of an alternative reference compound • HC=High Control: Mean confluence (%) (DMSO treated cells)
GraphPad Prism (version 7.00) was used to calculate the IC50. Dose-response equation was used for the plot of % Effect vs Log 10 compound concentration with a variable slope and fixing the maximum to 100% and the minimum to 0%.

MEIS1 mRNA expression = MEIS1 mRNA expression assay (Quantigene Singleplex) in MOLM14; assay type: cell-based; settings: Homo sapiens, MOLM-14, 48 h, MOLM14 cells, 48 hours with compound
Experimental: 2b) MEIS1 mRNA Expression Assay
MEIS1 mRNA expression upon treatment of compound was examined by Quantigene Singleplex assay (Thermo Fisher Scientific). This technology allows for direct quantification of mRNA targets using probes hybridizing to defined target sequences of interest and the signal is detected using a Multimode plate reader Envision (PerkinElmer). The MOLM14 cell line was used for this experiment. Cells were plated in 96-well plates at 3,750 cells/well in the presence of increasing concentrations of compounds. After incubation of 48 hours with compounds, cells were lysed in lysis buffer and incubated for 45 minutes at 55° C. Cell lysates were mixed with human MEIS1 specific capture probe or human RPL28 (Ribosomal Protein L28) specific probe as a normalization control, as well as blocking probes. Cell lysates were then transferred to the custom assay hybridization plate (Thermo Fisher Scientific) and incubated for 18 to 22 hours at 55° C. Subsequently, plates were washed to remove unbound materials followed by sequential addition of preamplifiers, amplifiers, and label probe. Signals (=gene counts) were measured with a Multimode plate reader Envision. IC50s were calculated by dose-response modelling using appropriate software. For all non-housekeeper genes response equal counts corrected for background and relative expression. For each sample, each test gene signal (background subtracted) was divided by the normalization gene signal (RPL28: background subtracted). Fold changes were calculated by dividing the normalized values for the treated samples by the normalized values for the DMSO treated sample. Fold changes of each target gene were used for the calculation of IC50s.

[1] = target: T1, Menin/MLL (terbium chelate-labeled menin, FITC-MBM1 peptide) (Homo sapiens, UniProt O00255, T541A); assay: Menin/MLL homogenous time-resolved fluorescence (HTRF) assay; assay type: binding; settings: 30 min incubation of test compound with terbium chelate-labeled menin
T1 construct: Menin (a.a 1-610-6×his tag)
T1 sequence (O00255 with tags, fused parts or gaps T541A): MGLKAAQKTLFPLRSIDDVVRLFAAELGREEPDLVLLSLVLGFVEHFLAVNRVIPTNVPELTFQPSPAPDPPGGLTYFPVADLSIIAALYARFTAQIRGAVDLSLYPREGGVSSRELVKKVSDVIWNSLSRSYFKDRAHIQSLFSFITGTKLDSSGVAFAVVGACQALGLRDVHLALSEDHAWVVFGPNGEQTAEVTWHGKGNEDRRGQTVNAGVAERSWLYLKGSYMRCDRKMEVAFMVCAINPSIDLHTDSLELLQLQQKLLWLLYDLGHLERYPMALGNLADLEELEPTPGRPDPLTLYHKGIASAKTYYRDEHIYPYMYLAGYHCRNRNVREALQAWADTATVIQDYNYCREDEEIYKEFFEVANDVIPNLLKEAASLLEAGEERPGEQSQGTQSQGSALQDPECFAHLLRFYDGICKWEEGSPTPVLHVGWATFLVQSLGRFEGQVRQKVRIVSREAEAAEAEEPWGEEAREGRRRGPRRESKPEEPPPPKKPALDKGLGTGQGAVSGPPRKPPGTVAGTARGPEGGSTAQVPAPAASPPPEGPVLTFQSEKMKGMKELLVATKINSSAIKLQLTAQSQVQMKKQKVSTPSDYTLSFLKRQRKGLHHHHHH
Experimental: 1) Menin/MLL Homogenous Time-Resolved Fluorescence (HTRF) Assay
To an untreated, white 384-well microtiter plate was added 40 nL 200× test compound in DMSO and 4 μL 2× terbium chelate-labeled menin (vide infra for preparation) in assay buffer (40 mM Tris·HCl, pH 7.5, 50 mM NaCl, 1 mM DTT (dithiothreitol) and 0.05% Pluronic F-127). After incubation of test compound and terbium chelate-labeled menin for 30 min at ambient temperature, 4 μL 2×FITC-MBM1 peptide (FITC-O-alanine-[…]-NH2) (“FITC” means fluorescein isothiocyanate) in assay buffer was added, the microtiter plate centrifuged at 1000 rpm for 1 min and the assay mixtures incubated for 15 min at ambient temperature. The relative amount of menin-FITC-MBM1 complex present in an assay mixture is determined by measuring the homogenous time-resolved fluorescence (HTRF) of the terbium/FITC donor/acceptor fluorphore pair using an EnVision microplate reader (ex. 337 nm/terbium em. 490 nm/FITC em. 520 nm) at ambient temperature. The degree of fluorescence resonance energy transfer (the HTRF value) is expressed as the ratio of the fluorescence emission intensities of the FITC and terbium fluorophores (F^em 520 nm/F^em 490 nm). […]
Compound potencies were determined by first calculating % inhibition at each compound concentration according to equation 1: […]

[2] = Dynamic vapor sorption (DVS) moisture sorption analysis; assay type: physicochemical
Experimental: Dynamic Vapor Sorption (DVS) The moisture sorption analysis (DVS) was performed using a ProUmid GmbH & Co. KG Vsorp Enhanced dynamic vapor sorption apparatus. The moisture profile was evaluated by monitoring vapor adsorption/desorption over the range of 0 to 90% relative humidity at 25° C. The sample weight equilibrium criteria were set at 0.01% change in 45 min with minimum and maximum time of acclimation at 50 min and 120 min, respectively. The moisture profile consisted of 2 cycles of vapor adsorption/desorption.

[3] = common ambient RH of 40% to 75%

SMILES | IC50 (MOLM14 cells) [nM] | IC50 (MEIS1 mRNA expression) [nM] | further results
CNC(=O)N1CCC(CN2CC[C@H](Cc3cn(-c4ccc(F)cc4C(=O)N(C)C(C)C)c4cncc(C)c34)C2)CC1 (single isomer, unassigned) [Compound 101] | 41 | 7 | 
COCC(=O)N1CCC(C(C)N2CCC(Cc3cn(-c4ccc(F)cc4C(=O)N(C)C(C)C)c4cncc(C)c34)C2)CC1 (single isomer, unassigned) [Compound 117a] | 5 | 7 | 
CC(=O)N1CC[C@@H](N2CC(Cc3cn(-c4ccc(F)cc4C(=O)N(C)C(C)C)c4cncc(C)c34)C2)C[C@H]1C (single isomer, unassigned) [Compound 292a] |  |  | IC50 [1]: 0.132 nM
CC(=O)N1CCC(CN2CC[C@@H](Cc3cn(-c4ccc(F)cc4C(=O)N(C)C(C)C)c4cncc(C)c34)C2)CC1.Cl [Compound 51a] |  |  | solid-state form stability after the DVS test (XRPD) ([2]; 2 cycles of vapor adsorption/desorption): No indication of a solid-state form change was observed; total moisture mass at equilibrium [2, 3]: 8.5-9.5%; water content at equilibrium [2, 3]: around 3 equivalents of water; hygroscopicity (DVS change in mass) ([2]; crystalline HCl salt Form, 0 to 90% relative humidity at 25° C.): hygroscopic; moisture adsorbed and desorbed, by mass on average ([2]; humidity range of 20-90% RH, 25° C., slowly and reversibly): up to 2.5%
Cc1cncc2c1c(CC1CN(CC3CCNC(=O)C3)C1)cn2-c1ccc(F)cc1C(=O)N(C)C(C)C (stereo not shown) [Compound 196] |  | 438 | 

Now from value to compound, other results behind:

IC50 (MOLM14 cells) [nM] | IC50 (MEIS1 mRNA expression) [nM] | SMILES | further results
 | 365 | CC(=O)N1C[C@H]2CC(N3CC(Cc4cn(-c5ccc(F)cc5C(=O)N(C)C(C)C)c5cncc(C)c45)C3)C[C@H]2C1 (single isomer, unassigned) [Compound 294a] | IC50 [1]: 0.237 nM
42 | 187 | CC(=O)N1CCC(N2CC[C@H](Cc3cn(-c4ccc(F)cc4C(=O)N(C)C(C)C)c4cncc(C)c34)C2)CC1 [Compound 156] | 
 | 153 | CC(=O)N1CC2CC(N3CC(Cc4cn(-c5ccc(F)cc5C(=O)N(C)C(C)C)c5cncc(C)c45)C3)CC2C1 (stereo not shown) [Compound 294b] | 
